Assay results as given in patent US11911349B2, “Rapidly improving vascular conditions by administering vitamin K” (NATTOPHARMA AS, priority 2018, dated 2024).

Test system: ApoE/LDLR−/− mice
Test: Example 3: MRI assessment of Ach response in BCA and LCA, older mice with advanced atherosclerosis
Type: in vivo
Settings: low dose 0.03 mg/kg b.w/day, eight weeks, 24-week-old mice; listed as vitamin K2, 0.03 mg/kg/day
Experimental: In a second part of the study, the effects of a low dose (0.03 mg/kg b.w./day) as well as a high doses (10 mg/kg b.w./day) of vitamin K2 (MK-7) on endothelial function in ApoE/LDLR−/−mice with pre-established atherosclerosis were assessed.
Magnetic resonance imaging (MRI) experiments were performed using a 9.4T scanner (BioSpec 94/20 USR, Bruker, Germany) located in the Department of Magnetic Resonance Imaging, Institute of Nuclear Physics, Polish Academy of Sciences in Krakow. During the experiment, mice were anaesthetized using isoflurane (Aerrane, Baxter Sp. z o. o., Poland, 1.7 vol %) in an oxygen and air (1:2) mixture and imaged in the supine position. Activity of the heart, respiration, and body temperature (maintained at 37° C. using circulating warm water) were monitored using a Monitoring and Gating System (SA Inc., Stony Brook, N.Y., USA). […]
Vasomotor response was examined by comparing two time-resolved 3D images of the vessels prior to and 25 minutes after intraperitoneal Ach administration (Sigma-Aldrich, Poznan Poland: 50 μl, 16.6 mg/kg), as well as prior to and 5 minutes after vessel occlusion. […] End-diastolic volumes of vessels were analyzed using ImageJ software 1.46r (NIH Bethesda, Md., USA) and scripts written in Matlab (MathWorks, Natick, Mass., USA). […]

## CC(C)=CCC/C(C)=C/CC/C(C)=C/CC/C(C)=C/CC/C(C)=C/CC/C(C)=C/CC/C(C)=C/CC1=C(C)C(=O)c2ccccc2C1=O [MK-7, menaquinone-7]
  volume change of LCA after Ach injection: ~−3%
